In PubChem BioAssay AID1159558 (GlaxoSmithKline (GSK), 2015):
Activity calls are given as the source filed them.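 How the source made its calls: active means IC50 against T. cruzi CYP51 below a set limit; inactive means the rest.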

These compounds were tested against Sterol 14-alpha demethylase (Trypanosoma cruzi (strain CL Brener)) (UniProt Q7Z1V1) (assay: TcCYP51 inhibitors, dose response, mechanism study for T. cruzi antiparasitic project, biochemical, recombinant enzyme (AID 1159558;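 further: enzyme in bacterial membranes with Anopheles gambiae CYP reductase and cytochrome b5 partners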)). Conditions: recombinant T. cruzi CYP51, BOMCC fluorescence.
Sterol 14-alpha demethylase (Trypanosoma cruzi (strain CL Brener)), sequence (Q7Z1V1 whole entry, looked up): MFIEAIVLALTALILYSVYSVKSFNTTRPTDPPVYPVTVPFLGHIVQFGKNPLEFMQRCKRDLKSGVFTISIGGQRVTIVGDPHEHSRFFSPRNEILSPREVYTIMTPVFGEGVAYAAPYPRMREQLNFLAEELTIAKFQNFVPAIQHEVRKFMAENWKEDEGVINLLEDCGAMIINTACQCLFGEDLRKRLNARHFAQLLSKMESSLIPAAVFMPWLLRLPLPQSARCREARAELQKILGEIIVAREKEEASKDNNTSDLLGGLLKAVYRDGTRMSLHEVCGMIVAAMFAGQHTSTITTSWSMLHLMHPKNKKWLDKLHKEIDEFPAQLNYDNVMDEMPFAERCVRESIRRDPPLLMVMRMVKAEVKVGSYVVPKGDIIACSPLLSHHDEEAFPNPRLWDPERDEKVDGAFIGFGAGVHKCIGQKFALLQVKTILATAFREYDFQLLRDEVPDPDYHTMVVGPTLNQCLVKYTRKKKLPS

Row | IC50 | SMILES
1 | 32 µM | O=c1ccc2ccc(F)c3c2n1C[C@H]3CN1CCC(NCc2cc3ccccc3o2)CC1
2 | 25 µM | C[C@@H](Oc1cc(-n2cnc3ccc(CC(O)CO)cc32)sc1C(N)=O)c1ccccc1Cl (some centres not stated)
3 | > 100 µM (inactive) | NC(=O)c1ncccc1Nc1nc(NC2CCC(O)CC2)ncc1Br (configuration not stated)
4 | > 100 µM (inactive) | CC(=O)Nc1ccc(-c2noc(CC3CCCN(Cc4cccc(F)c4C)C3)n2)cc1 (configuration not stated)
5 | 0.079 µM | O=C(NCc1ccncc1)c1ccccc1N1CCCN(C(=O)Cc2ccc(F)c(F)c2)CC1
6 | > 100 µM (inactive) | O=C(NCC1CCCCC1)c1cc(=O)c2ccccc2o1
7 | 0.063 µM | COc1ccc(C(=O)N2CCC(Nc3cccnc3)C2)c(OC)n1 (configuration not stated)
8 | > 100 µM (inactive) | OC1CCC(Nc2nccc(-c3sc(C4CCOCC4)nc3-c3ccc(F)c(F)c3)n2)CC1 (configuration not stated)
9 | 25 µM | C[C@@H](Oc1cc(-n2cnc3ccc(C(O)CO)cc32)sc1C(N)=O)c1ccccc1C(F)(F)F (some centres not stated)
10 | 10 µM | Cc1nc2c(-c3ncn[nH]3)cc(NC(=O)Cc3ccccc3)cn2c1C
11 | > 100 µM (inactive) | CC(C)Nc1nccc(-c2c(-c3ccc(F)cc3)ncn2C2CCOCC2)n1
12 | > 100 µM (inactive) | NC(=O)c1ccccc1Nc1nc(NC2CCCCC2)nc2[nH]ccc12
13 | > 100 µM (inactive) | Cc1ccc2c(c1)SC(C(=O)Nc1n[nH]c(-c3ccccn3)n1)C2 (configuration not stated)
14 | > 100 µM (inactive) | CCc1c(C)nc(-n2nc(C)cc2NC(=O)COc2ccccc2F)[nH]c1=O
15 | 40 µM | CN(Cc1nc2c(C(=O)N3CCN(Cc4ccccc4)CC3)cccc2[nH]1)C1CCCc2cccnc21 (configuration not stated)
16 | 40 µM | CN(Cc1nc2ccc(C(=O)NCC3CCCCC3)cc2[nH]1)C1CCCc2cccnc21 (configuration not stated)
17 | 25 µM | O=C1CN(C(=O)c2cccc(Nc3ncc(-c4ccc5c(c4)OCO5)cn3)c2)CCN1
18 | 79 µM | CCc1ccccc1[C@@H](C)NC(=O)c1cnc2c(cnn2CC)c1NC1CCN(C(N)=O)CC1

Row | IC50 | SMILES
19 | 25 µM | COc1ccc(-c2cnc(C)o2)cc1S(=O)(=O)Nc1ccc(C)cc1C
20 | 32 µM | N#Cc1cc(-c2ccnc(Nc3cccc(CN4CCOCC4)c3)n2)ccc1NCCN
21 | 50 µM | Cc1nccn1C1CCCN(C(=O)c2cc3c(F)cccc3s2)C1 (configuration not stated)
22 | > 100 µM (inactive) | Cc1cc(C)c(C#N)c(SCC(=O)c2ccc3c(c2)OCO3)n1
23 | 50 µM | N#Cc1cccc(Cc2cc(Nc3cc(C4CC4)[nH]n3)nc(N3CC[C@H]3C(N)=O)n2)c1
24 | 10 µM | COc1ccc(-c2cnc(NC(=O)c3ccc(F)cc3)n2C)cc1
25 | 0.13 µM | Cc1nc(N2CCC(C(=O)N3CCC(O)(c4cccnc4)CC3)CC2)nc2ccc(C(C)C)cc12
26 | 1 µM | COc1ccc2nccc(NC(=O)C3(OC)CCN(CC(O)c4ccc5c(c4)OCCO5)CC3)c2n1 (configuration not stated)
27 | 16 µM | COc1cnc2ccc(=O)n(CCN3CCC(NC/C=C/c4cc(F)ccc4F)CC3)c2c1
28 | > 100 µM (inactive) | NC(=O)c1ncc(N[C@@H]2CCCNC2)nc1Nc1cccc(Cl)c1
29 | 6.3 µM | COc1ccc2nccc([C@H](O)CN3CC[C@H](NC(=O)c4ccc(Br)cc4)[C@@H](O)C3)c2n1
30 | 10 µM | Cc1cc2cc(CNc3ccc4c(c3)OCO4)c(=O)n(CCO)c2cc1C
31 | 10 µM | N#Cc1cnc(Nc2cccc(CCN3CCOCC3)c2)nc1Nc1ccccc1C(N)=O
32 | 0.13 µM | CN(Cc1nnnn1C1CCN(Cc2ccc(-n3ccnc3)cc2)CC1)c1ccc(F)cc1F
33 | 20 µM | COc1ccccc1CNc1cc(C2CC2)nc(-c2nccn2C)n1
34 | 63 µM | COc1ccc2ncc(F)c(NC(=O)C3(O)CCC(NCc4ccc5c(c4)OCCO5)CC3)c2n1 (configuration not stated)
35 | > 100 µM (inactive) | Oc1c(-c2n[nH]c(Cc3ccc(F)cc3)n2)ncc2cccnc12

Second part, the compound before the results:

Row | SMILES | IC50
36 | O=c1cc(NCCCNCc2cc(C(F)(F)F)cs2)[nH]c2ccccc12 | 25 µM
37 | CCOc1ccc(CC(=O)N2c3ccccc3CC2C(=O)NC)cc1 (configuration not stated) | > 100 µM (inactive)
38 | CCNc1cc(-c2ccccn2)nc(Nc2ccccc2)n1 | > 100 µM (inactive)
39 | COC(=O)c1ccc(-c2cnc3ccc(NCc4ccccn4)nn23)cc1 | 1.3 µM
40 | CC(C)c1cc(C(=O)N2CCCC(c3cc4ncccc4[nH]3)C2)on1 (configuration not stated) | 50 µM
41 | O=C(Nc1nc(-c2ccccn2)cs1)c1ccccc1-n1cnnn1 | > 100 µM (inactive)
42 | N#Cc1cc(N2CCCC2=O)ccc1Sc1ccccc1CO | 20 µM
43 | O=c1[nH]cnc2c([C@@H]3O[C@H](CO)[C@@H](O)[C@H]3O)[nH]nc12 | > 100 µM (inactive)
44 | N#CN1CC[C@@H](NC(=O)Nc2ccccc2Oc2ccccc2)C1 | > 100 µM (inactive)
45 | CC(C(=O)Nc1ccc(Br)cc1)N1CCN(c2ccc([N+](=O)[O-])cc2)CC1 (configuration not stated) | 40 µM
46 | Cc1cc(=O)n2nc(Oc3ccc(C#N)cc3Cl)sc2n1 | > 100 µM (inactive)
47 | CCOc1ccc(NC(=O)C=Cc2ccc(CC)o2)cc1 | > 100 µM (inactive)
48 | c1ccc(CNc2cccc3ccncc23)cc1 | 0.1 µM
49 | Cn1nccc1-c1cc(OC(CN)c2ccccc2)cnc1-c1ccco1 (configuration not stated) | 0.063 µM
50 | COc1ccc(S(=O)(=O)NCc2ccc(-c3ccc(CN(C)CCO)cc3)cc2)cc1 | 16 µM
51 | COc1ccc(Nc2nc(-c3ccccn3)cs2)c(OC)c1 | 20 µM
52 | O=C(Cn1cnc2c(-c3ccccc3)csc2c1=O)N1CCCCC1 | 40 µM
53 | O=C(NCC(c1cccs1)N1CCOCC1)c1ccc([N+](=O)[O-])o1 (configuration not stated) | 10 µM
54 | O=C(Nc1nc(-c2ccccn2)cs1)N1C[C@H]2C[C@@]2(c2ccccc2)C1 | 40 µM
55 | O=[N+]([O-])c1ccc(-c2nnn(-c3ccc(Cl)cc3)n2)o1 | > 100 µM (inactive)
56 | Cn1ccnc1CN1CCc2[nH]cnc2C1c1ccccc1OCc1ccccc1 (configuration not stated) | 7.9 µM
57 | Cc1nc2c(-c3n[nH]c(-c4ccccc4N)n3)cccn2c1C | 3.2 µM
58 | COc1cc2c(cc1OC)[C@H]1[C@@H](C)c3ccc(OC)c(OC)c3CN1CC2 | 79 µM

Row | SMILES | IC50
59 | O=C(Nc1cccc(Cl)c1)Nc1ccc([N+](=O)[O-])cc1Cl | 5 µM
60 | Cc1cc(NC(=O)c2ccc([N+](=O)[O-])s2)ccc1Br | 10 µM
61 | Cc1cc2ncn(-c3ccc([N+](=O)[O-])cc3C#N)c2cc1C | > 100 µM (inactive)
62 | Cc1[nH]nc2c1C(c1ccc(OCc3ccccc3F)cc1)SCC(=O)N2 (configuration not stated) | > 100 µM (inactive)
63 | Cc1nc(-c2ccncc2)ncc1C(C)NC(=O)c1ccc(Cl)s1 (configuration not stated) | 0.79 µM
64 | O=C(CCCn1cnc([N+](=O)[O-])n1)Nc1cccc(Cl)c1 | 50 µM
65 | CC(C)Oc1cccc(N2CCC(C(=O)N3CCCN(C(C)C)CC3)CC2)c1 | > 100 µM (inactive)
66 | O=C(NCCNc1noc(-c2ccc([N+](=O)[O-])cc2)n1)c1ccc(Cl)cc1 | > 100 µM (inactive)
67 | CC(C)(C)C(O)(CCc1ccc(Cl)cc1)Cn1cncn1 (configuration not stated) | 0.13 µM
68 | CCN(CC)S(=O)(=O)c1ccc(OC)c(NC(=O)c2ccc([N+](=O)[O-])s2)c1 | 32 µM
69 | CC1CN(S(=O)(=O)c2ccc(NC(=O)c3cc(C4CC4)nc4c3cnn4C(C)C)cc2)CC(C)O1 (configuration not stated) | > 100 µM (inactive)
70 | O=S(=O)(NCC(c1cccnc1)N1CCN(c2ccccc2F)CC1)c1ccc(F)cc1 (configuration not stated) | 0.079 µM
71 | COc1ccc(NS(=O)(=O)c2cccc(NC(=O)c3cc(F)cc(F)c3)c2)cc1 | > 100 µM (inactive)
72 | CCn1c(-c2nonc2N)nc2c([C@@H](C)O)ncc(O[C@H](CN)c3ccccc3)c21 | 25 µM
73 | NC(=O)c1ccsc1NC(=O)c1ccc([N+](=O)[O-])s1 | > 100 µM (inactive)
74 | Cc1ccc(Nc2nc(N)nc(CNC(c3nc4ccccc4[nH]3)C(C)C)n2)cc1 (configuration not stated) | 50 µM
75 | CCCCNc1nccc(-c2c(-c3ccc(F)cc3)nn3c(N4CCOCC4)cccc23)n1 | > 100 µM (inactive)
76 | Cc1ccc(S(=O)(=O)Nc2ccc(CN3CCN(C(=O)c4cccc(C)c4)CC3)cc2)cc1 | 79 µM
77 | COc1cccc(-c2cc(C(F)(F)F)nc(-n3ccc([N+](=O)[O-])n3)n2)c1 | > 100 µM (inactive)
78 | N#Cc1cc([N+](=O)[O-])ccc1NC1CCCCCC1 | > 100 µM (inactive)
79 | O=C(c1ccc(OCCCc2cnc[nH]2)cc1)C1CC1 | 0.05 µM
80 | COc1ccc(S(=O)(=O)Nc2ccc(C(=O)Nc3nc(-c4ccccn4)cs3)cc2)cc1 | 0.4 µM
81 | O=C(Cc1ccccc1)Nc1ccccc1C(=O)Nc1nccs1 | > 100 µM (inactive)

Row | SMILES | IC50
82 | CC(CCc1ccccc1)NC(=O)CN(Cc1ccccn1)Cc1ccccn1 (configuration not stated) | 63 µM
83 | C[C@@H](Oc1cc(-n2cnc3cc(N)ccc32)sc1C(N)=O)c1ccccc1Cl | 3.2 µM
84 | O=[N+]([O-])c1ccc(C2=CC(c3ccccc3)=NCCN2)cc1 | 50 µM
85 | Cc1ccc(NC(=O)c2ccc(Cl)c(NC(=O)c3ccc([N+](=O)[O-])cc3)c2)cc1 | > 100 µM (inactive)
86 | CCCN(Cc1ccc(OC)c(OC)c1)Cc1cc(=O)c2c(C)cc(C)cc2[nH]1 | > 100 µM (inactive)
87 | O=C(CN(Cc1ccccn1)Cc1ccccn1)NCc1ccc(-c2csnn2)cc1 | 40 µM
88 | Fc1ccc(Nc2nc(-c3ccccn3)cs2)cc1 | 16 µM
89 | Cn1nc([N+](=O)[O-])nc1Oc1ccc(C(=O)c2ccccc2)cc1 | > 100 µM (inactive)
90 | CCOC(=O)c1cn[nH]c1S(=O)(=O)N1CCC1c1ccccc1 (configuration not stated) | 50 µM
91 | O=C(Nc1nc2ccccc2[nH]1)c1c(O)c2cccc3c2n(c1=O)CC3 | > 100 µM (inactive)
92 | CCC(c1ccc(F)cc1)n1cncc1-c1cnn(C)c1 (configuration not stated) | 0.079 µM
93 | Cn1nc([N+](=O)[O-])nc1N1CCCCC1 | > 100 µM (inactive)
94 | O=C(O)[C@H]1C[C@@H]1c1ccc(-c2ccc(CN(CCc3ccccn3)C(=O)C3CCC3)cc2)cc1 | 20 µM
95 | CN(C)c1ncc(-c2cncn2CCOc2ccc(Cl)cc2)cn1 | 0.05 µM
96 | O=C(NCCc1csc(-c2ccc(F)cc2)n1)c1ccco1 | > 100 µM (inactive)
97 | Cc1ccccc1CNC(=O)CN(Cc1ccccn1)Cc1ccccn1 | 100 µM
98 | CN(C)CCN(C)Cc1ccc(Cl)cc1NS(=O)(=O)c1ccc(Cl)c(Cl)c1 | 32 µM
99 | Cc1cc(NC(=O)C2CCCCC2)n(-c2nc3c(c(=O)[nH]2)CCC3)n1 | > 100 µM (inactive)
100 | O=C(NCCc1csc(-c2ccc(F)cc2)n1)c1cccs1 | 25 µM
101 | c1ccc2c(CCOc3nccnc3-c3ccncc3)c[nH]c2c1 | 0.063 µM
102 | COc1ccc(OC)c(S(=O)(=O)N(Cc2c(F)cccc2F)[C@@H]2CCN(C#N)C2)c1 | > 100 µM (inactive)
